Test results as given in ChEMBL document CHEMBL1139642, “Design, synthesis, and evaluation of dioxane-based antiviral agents targeted against the Sindbis virus capsid protein” (Bioorg Med Chem Lett, 2005).

What was measured:
Sindbis virus = experiment: Effective concentration resulting in a 50% reduction in virus production in BHK cells; type: functional, organism-based
[1] = Cytotoxic concentration for 50% growth inhibition of uninfected BHK cells; type: cell-based, Mesocricetus auratus; settings: hamster

`C(C[C@@H]1COCCO1)C[C@@H]1COCCO1` gave an EC50 (Sindbis virus) of 40 µM and a CC50 [1] greater than 1000 µM.
`c1ccc(CCCC[C@@H]2COCCO2)cc1` gave an EC50 (Sindbis virus) greater than 100 µM and a CC50 [1] of 600 µM.
With `O=C(C[C@@H]1COCCO1)C[C@@H]1COCCO1` the EC50 (Sindbis virus) was greater than 100 µM and the CC50 [1] was greater than 1000 µM.
With `OC[C@@H]1COCCO1` the EC50 (Sindbis virus) was 1 µM and the CC50 [1] was greater than 1000 µM.
